From ChEMBL document CHEMBL1151015, “Novel frameworks for trifluoromethyl ketone and phosphonate tsa inhibitors of type II PLA2” (Bioorg Med Chem Lett, 1997)

What was measured:
[1] = target: T1, Cytosolic phospholipase A2 (Homo sapiens) (UniProt P47712); experiment: Compound was measured for the inhibitory activity against Cytosolic phospholipase A2 (c-PLA2) at 100 uM concentration; design: scale not given: the % may be the effect or the level left
T1 sequence (whole entry): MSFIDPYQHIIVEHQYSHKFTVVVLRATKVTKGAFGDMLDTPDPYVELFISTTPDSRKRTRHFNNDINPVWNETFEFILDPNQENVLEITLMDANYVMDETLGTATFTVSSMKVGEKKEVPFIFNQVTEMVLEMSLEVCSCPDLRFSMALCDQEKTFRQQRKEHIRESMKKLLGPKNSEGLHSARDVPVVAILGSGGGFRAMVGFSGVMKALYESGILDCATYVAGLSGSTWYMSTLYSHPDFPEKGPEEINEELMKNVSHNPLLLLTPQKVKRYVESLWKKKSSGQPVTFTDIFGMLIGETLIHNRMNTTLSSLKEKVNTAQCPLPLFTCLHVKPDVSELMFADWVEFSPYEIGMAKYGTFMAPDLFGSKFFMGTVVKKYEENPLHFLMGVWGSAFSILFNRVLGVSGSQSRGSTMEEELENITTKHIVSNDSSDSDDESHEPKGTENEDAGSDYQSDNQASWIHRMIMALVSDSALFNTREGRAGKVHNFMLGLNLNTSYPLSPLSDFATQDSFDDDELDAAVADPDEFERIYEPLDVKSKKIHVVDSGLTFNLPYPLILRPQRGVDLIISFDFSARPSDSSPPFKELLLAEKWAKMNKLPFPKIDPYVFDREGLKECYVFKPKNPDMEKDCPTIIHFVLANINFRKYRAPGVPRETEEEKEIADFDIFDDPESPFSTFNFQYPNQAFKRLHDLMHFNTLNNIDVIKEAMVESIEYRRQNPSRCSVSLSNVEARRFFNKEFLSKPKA

[2] = species: Homo sapiens; experiment: Compound was measured for the inhibitory activity against LTC4 formation in human monocyte at 30 uM concentration; type: functional; design: scale not given: the % may be the effect or the level left
[3] = Dissociation constant of compound.; type: physicochemical
[4] = species: Homo sapiens; experiment: Compound was measured for the inhibitory activity against LTB4 formation in human whole blood at 30 uM concentration; type: functional; design: scale not given: the % may be the effect or the level left
[5] = pH dependence of compound; weak; type: ADME
[6] = species: Homo sapiens; experiment: Compound was measured for the inhibitory activity against LTC4 formation in human monocyte; not determined; not cell permeable; type: functional
[7] = target: T1, Cytosolic phospholipase A2 (Homo sapiens); experiment: Compound was measured for the inhibitory activity against Cytosolic phospholipase A 2 (c-PLA2) at 30 uM concentration; design: scale not given: the % may be the effect or the level left
[8] = species: Homo sapiens; experiment: Compound was measured for the inhibitory activity against LTC4 formation in human monocyte; not cell permeable; type: functional

For `O=C(O)c1ccc2cccc(C(=O)C(F)(F)F)c2c1`, the Activity [1] was -36% and the Activity [2] was -76%.
Work on `CCCCCCCCCCOP(=O)(O)c1cc(OCc2ccccc2)ccc1/C=C/C(=O)O` yielded a pKa [3] of 7.1, an Activity [2] of -44% and an Activity [4] of -90%.
In the case of `CCCCCCCCCCCCCCCCCCOP(=O)(O)c1cccc2ccc(C(=O)O)cc12`, the pH dependence [5] is reported as “weak” and the Activity [6] is reported as “not cell permeable”.
With `CCCCCCCOc1ccc(C(=O)O)cc1CC(=O)C(F)(F)F` the pKa [3] was 7.1, the Activity [7] was -40% and the Activity [8] was “not cell permeable”.
